Assay results from patent US20230105108A1, “COMPOUNDS FOR THE TREATMENT OF BACTERIAL INFECTIONS AND POTENTIATION OF ANTIBIOTICS” (GEORGIA STATE UNIVERSITY RESEARCH FOUNDATION, INC., priority 2019, published 2023).
Counter-ions that a name gives are not always drawn. Like-named read-outs stand apart in the source and are kept apart here.

Legend:
M. smegmatis = assay: MIC on mycobacteria; assay type: cell-based, Mycobacterium smegmatis; details: for MIC: Mycolicibacterium smegmatis, read-out: MIC on mycobacteria
B. subtilis = assay: MIC determination and sensitization fold on B. subtilis; assay type: cell-based; details: B. subtilis; for Sensitization fold: erythromycin; for MIC: compound alone, read-out: MIC
E. coli (ATCC 25922) = assay: MIC determination, sensitization fold and FIC index on E. coli; assay type: cell-based; details: for Sensitization: compound up to 25 μM
Protocol: Bacteria culture and MICs determination: Gram-negative bacteria were cultured in Mueller Hinton II cation-adjusted broth. Gram-positive bacteria were cultured in LB broth. Mycobacterium smegmatis was cultured in Middlebrook 7H9 Broth. MICs of antibiotics itself were determined by performing two-fold serial dilutions of antibiotics. MICs of antibiotics in the presence of bacterial sensitizers were determined by performing two-fold serial dilutions of antibiotics with or without a constant concentration of bacterial sensitizers. The MICs tests were performed on 96-well plates with a final volume of 200 μl Mueller Hinton II cation-adjusted broth in each well. Each well was inoculated with 5×10^5 CFU/ml bacteria and was incubated for 24 h at 37° C. with continuous shaking of 200 rpm. The bacterial density was then determined by OD600. Bacterial growth %=OD600 of antibiotic treatment group/OD600 of antibiotic non-treatment group. MICs was determined as the concentrations that inhibit more than 90% of bacteria growth.
Sensitization fold determination and FIC index calculations: Sensitization fold=MIC of antibiotic only/MIC of antibiotic with bacterial sensitizer. […] Since the MICs were determined by performing two-fold serial dilutions of antibiotic, so the sensitization fold can is the times of 2.
FIC index between compound a and b was calculated according to the formula below: […]
FIC≤0.5: Synergy; FIC between 0.5 and 1: Additive; FIC between 1 and […]: no interaction; FIC >4: antagonism.
Bacteria strains (as indicated in Table 5B) were cultured with rifampicin at various concentrations in the presence or absence of 10 μM of the indicated compound for 20 h at 37° C. The MIC, sensitization, cytotoxicity, and MIC on mycobacteria were tested according to methods described herein. […] The sensitization activities of compounds on MRSA were tested using rifampicin. The sensitization activities of compounds on E. coli were tested using rifampicin.

[1] = Cytotoxicity in H9c2 cells (CCK-8); assay type: cell-based; details: rat, H9c2 cells; for CC50 at 24 h: H9c2 cell line; for IC50 at 24 h: H9c2 cells (ATCC CRL-1446)
Protocol: The cytotoxicity in H9c2 (ATCC®CRL-1446™) cells was also determined. The H9c2 cells were maintained in DMEM (Dulbecco's Modified Eagle's Medium) supplemented with 10% fetal bovine serum (MidSci; S01520HI) and 1% penicillin-streptomycin (Sigma-Aldrich; P4333) at 37° C. with 5% CO2. The H9c2 cells were seeded in 96-well plate one day before the experiment. Different concentrations of di-amidine compounds were added into the H9c2 cells. The cells were then incubated with the compounds for 24 hours at 37° C. with 5% CO2. The cell viability was tested by the CCK-8. Specifically, after 24 hour incubation, 10 μL CCK-8 was added to each well. After 3 hours incubation at 37° C., the absorbance at 450 nm was recorded by a plate reader.

[2] = Cytotoxicity on mammalian cells (CCK-8), NIH3T3; assay type: cell-based; details: mouse, NIH3T3 cells, 3T3 cell line
Protocol: (§1) Cytotoxicity test of bacterial sensitizers on mammalian cells. Cell viability was assessed by using Cell Counting Kit-8 (CCK-8, Dojindo, Japan). HEK293 or NIH3T3 cells were seeded in a 96-well plate one day before the experiment to reach 80% confluency. Cells were then incubated with various concentration of bacterial sensitizers at 37° C. with 5% CO2 for 24 h, then 10 μL of CCK-8 solution was added to each well, and the plate was incubated for an additional at 37° C. 2 h with 5% CO2. The optical density at 450 nm was recorded by plate reader; and the results were calculated as a percentage of viability compared with the untreated control.

[3] = Cytotoxicity on mammalian cells (CCK-8), HEK293; assay type: cell-based; details: human, HEK293 cells; HEK293 cell line; 24 h
Protocol: as §1

E. coli = assay: Sensitization of E. coli (sensitization fold), Example 2; assay type: cell-based
Protocol: The sensitization fold of select compounds of the present invention was determined. E. coli bacteria were cultured in nutrient broth at 37° C. overnight prior to treatment. […] Bacterial density was measured based on OD600.

[4] = Escherichia coli, ATCC25922, 24 h

Question: For `N=C(N)c1ccc(OCc2cccc(COc3ccc(C(=N)N)cc3)c2F)cc1` [DB2573, 1,3-Bis{(4-amidino)-phenoxymethyl}-2-fluorobenzene dihydrochloride], which MIC (M. smegmatis) is on record?
Answer: 12 µM

Question: What about the Sensitization fold (B. subtilis; compound at 12 μM) of the same compound?
Answer: 4-fold at 12 μM

Question: And the MIC (B. subtilis; Bacillus subtilis, 24 h)?
Answer: 25 µM

Question: What about the Sensitization fold (E. coli (ATCC 25922); E. coli, rifampicin, compound at 12 μM) of the same compound?
Answer: 32-fold at 12 μM

Question: What about the MIC (E. coli (ATCC 25922); [4]) of the same compound?
Answer: 25 µM

Question: What about the CC50 at 24 h [1] of the same compound?
Answer: 50 µM

Question: For `N=C(N)c1ccc(OCc2ccc(COc3ccc(C(=N)N)cc3)cc2)cc1` [MD-101, 1,4-Bis [(4-amidino)-phenoxymethyl]benzene dihydrochloride], which MIC (M. smegmatis) is on record?
Answer: 3 to 6 µM

Question: And the CC50 at 24 h [2]?
Answer: > 100 µM

Question: And the CC50 at 24 h [3]?
Answer: > 100 µM

Question: What about the Sensitization fold (B. subtilis; compound at 3 μM) of the same compound?
Answer: 2-fold at 3 μM.

Question: What about the Sensitization fold (B. subtilis; compound at 6 μM) of the same compound?
Answer: 4-fold at 6 μM,

Question: What about the MIC (B. subtilis; Bacillus subtilis, 24 h) of the same compound?
Answer: 25 µM

Question: And the Sensitization (E. coli (ATCC 25922); E. coli, rifampicin)?
Answer: No effect up to 25 μM

Question: And the MIC (E. coli (ATCC 25922); [4])?
Answer: 100 µM

Question: What about the CC50 at 24 h [1] of the same compound?
Answer: 50 µM

Question: Which results are given for “1, 4-Bis [((4-amidino)-2-methoxy)-phenoxy methyl]2-fluorobenzene dihydrochloride [MD-104]”?
Answer: MIC on mycobacteria (M. smegmatis; M. smegmatis): 6 to 12 µM; MIC (B. subtilis): 25 µM; Sensitization fold (B. subtilis; compound at 6 μM): 2-fold at 6.; Sensitization fold (B. subtilis; compound at 12 μM): 8-fold at 12 μM; MIC (E. coli (ATCC 25922); E. coli, compound alone, read-out: MIC): 50 µM; Sensitization (E. coli (ATCC 25922); E. coli, rifampicin): No effect up to 25 μM.

Question: With `N=C(N)c1ccc(-c2ccc(-c3ccc(-c4ccc(C(=N)N)o4)o3)o2)o1` [Compound N] as the compound, how does the “Sensitization ability: fold sensitization of E. coli towards rifampicin” value (E. coli; compound at 25 μM) read?
Answer: At 25 μM, sensitize E. coli towards rifampicin for 64-fold.

Question: And the IC50 at 24 h [1]?
Answer: 100 µM

Question: With `N=C(N)Nc1ccc(-c2ccc(-c3ccc(NC(=N)N)cc3)cc2)cc1` [Compound A] as the compound, how does the “Sensitization ability: fold sensitization of E. coli towards rifampicin” value (E. coli; compound at 25 μM) read?
Answer: At 25 μM, sensitize E. coli towards rifampicin for 256-fold;

Question: And the IC50 at 24 h [1]?
Answer: 50 µM

Question: Which “Sensitization ability: fold sensitization of E. coli towards rifampicin” value (E. coli; compound at 25 μM) does the source give for `N=C(N)Nc1ccc(-c2ccc(-c3nc4ccc(NC(=N)N)cc4[nH]3)o2)cc1` [Compound B] here?
Answer: At 25 μM, sensitize E. coli towards rifampicin for 16-fold;

Question: And the IC50 at 24 h [1]?
Answer: 100 µM

Question: Which results are given for `N=C(N)Nc1ccc(-c2ccc(-c3ccc(-c4ccc(NC(=N)N)cc4)o3)o2)cc1` [Compound O]?
Answer: Sensitization ability: fold sensitization of E. coli towards rifampicin (E. coli; compound at 10 μM): At 10 μM, sensitize E. coli towards rifampicin for 256-fold.; IC50 at 24 h [1]: > 100 µM

Question: What does the source list for `N=C(N)c1ccc(-c2ccc(-c3ccc(-c4ccc(C(=N)N)o4)s3)s2)o1` [Compound P]?
Answer: Sensitization ability: fold sensitization of E. coli towards rifampicin (E. coli; compound at 25 μM): At 25 μM, sensitize E. coli towards rifampicin for 32-fold;; IC50 at 24 h [1]: 50 µM

Question: What does the source list for `N=C(N)c1ccc(-c2ccc(-c3ccc(-c4ccc(C(=N)N)cc4)o3)o2)cc1` [Compound T]?
Answer: Sensitization ability: fold sensitization of E. coli towards rifampicin (E. coli; compound at 25 μM): At 25 μM, sensitize E. coli towards rifampicin for 32-fold;; IC50 at 24 h [1]: > 100 µM
